The text below walks through data of patent US20050209278A1, “Piperidinyl- and piperazinyl-sulfonylmethyl hydroxamic acids and their use as protease inhibitors” (priority 2002, published 2005).

The target in one assay is T1, MMP-1 (Homo sapiens, UniProt P03956).
T1 construct: made in house; host or cells: MMP-1-transfected HT-1080 cells (spent media)
T1 sequence (P03956 100-469): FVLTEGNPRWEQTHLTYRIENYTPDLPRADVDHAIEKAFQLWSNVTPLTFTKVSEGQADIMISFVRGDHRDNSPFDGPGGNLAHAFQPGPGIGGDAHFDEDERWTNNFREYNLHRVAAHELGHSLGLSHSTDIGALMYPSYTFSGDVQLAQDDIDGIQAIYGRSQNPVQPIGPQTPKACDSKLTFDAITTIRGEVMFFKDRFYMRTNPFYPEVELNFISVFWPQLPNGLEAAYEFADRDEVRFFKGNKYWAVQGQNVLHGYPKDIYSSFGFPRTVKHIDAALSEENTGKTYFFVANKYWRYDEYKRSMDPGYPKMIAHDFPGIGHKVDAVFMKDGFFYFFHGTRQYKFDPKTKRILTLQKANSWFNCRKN
Put plainly: In vitro MMP inhibition, IC50 determination (fluorogenic substrate I). In kind it is biochemical. The following applies: value in parenthesis; read-out: MMP-1 (IC-50). As for the experimental part:
Several hydroxamic acids and salts thereof were analyzed in in vitro assays to determine their ability to inhibit the MMP cleavage of peptide substrates. […] and IC50 constants were calculated from the assayed hydroxamic acid-MMP interactions. Human recombinant MMP-1, MMP-2, MMP-9, MMP-13, and MMP-14 were used in this assay. All enzymes were prepared in Assignee's laboratories following usual laboratory procedures. Protocols for the preparation and use of these enzymes are available in the scientific literature. See, e.g., Enzyme Nomenclature (Academic Press, San Diego, Calif., 1992) (and the citations therein). See also, Freije et al., “Molecular cloning and expression of collagenase-3, a novel human matrix metalloproteinase produced by breast carcinomas,” J Biol. Chem., 269(24), 16766-16773 (1994). The MMP-1 proenzyme was purified from the spent media of MMP-1-transfected HT-1080 cells provided by Dr. Harold Welgus of Washington University (St. Louis, Mo.). The protein was purified on a zinc chelating column. All MMPs were activated using 4-aminophenylmercuric acetate (“APMA”, Sigma Chemical, St. Louis, Mo.) or trypsin. MMP-9 also was activated using human recombinant MMP-3 (purified in Assignee's laboratory following standard cloning and purification techniques). […] Substrate (I) was purchased from Baychem (Redwood City, Calif.), and substrate II was prepared Assignee's laboratory. Substrate I was used in the IC50 determination assays, while substrate II was used in the Ki determination assays. In the absence of MMP inhibitory activity, either substrate is cleaved at the Gly-Leu peptide bond. […] The stock solutions of the assayed hydroxamic acids (or salts thereof) were prepared in 1% dimethyl sulfoxide (DMSO). […] The experiment controls contained the same amount of Buffer A/DMSO as the assayed sample, but contained no hydroxamic acid (or salt thereof). The assays from which the IC50 determinations were made were performed as follows. […] Louis, Mo.). The assayed hydroxamic acid samples were incubated in MicrofluorTM White Plates (Dynatech, Chantilly, Va.) and analyzed on a Perkin Elmer […] plate reader (Norwalk, Conn.). The excitation wavelength was 328 nm, and the emission wavelength-415 nm. […] As stated in the previous paragraph, samples containing varying concentrations of the same assayed hydroxamic acid were prepared. Inhibition was measured as a reduction in fluorescent intensity as a function of MMP inhibitor concentration. […] All values in Table 2 are given in nM units. The IC50 measurements are in parenthesis.

A further assay deals with T2, MMP-14 (Homo sapiens, UniProt P50281).
T2 construct: The catalytic domain enzyme was expressed in E. coli inclusion bodies, solubilized in urea; made in house
The description is as above. Conditions: value in parenthesis; read-out: MMP-14 (IC-50). It is filed as biochemical. As for the experimental part: Several hydroxamic acids and salts thereof were analyzed in in vitro assays to determine their ability to inhibit the MMP cleavage of peptide substrates. […] and IC50 constants were calculated from the assayed hydroxamic acid-MMP interactions. Human recombinant MMP-1, MMP-2, MMP-9, MMP-13, and MMP-14 were used in this assay. All enzymes were prepared in Assignee's laboratories following usual laboratory procedures. Protocols for the preparation and use of these enzymes are available in the scientific literature. See, e.g., Enzyme Nomenclature (Academic Press, San Diego, Calif., 1992) (and the citations therein). See also, Freije et al., “Molecular cloning and expression of collagenase-3, a novel human matrix metalloproteinase produced by breast carcinomas,” J Biol. Chem., 269(24), 16766-16773 (1994). The MMP-14 full length cDNA was provided by Dr. Gregory Goldberg of Washington University (St. Louis, Mo.). The catalytic domain enzyme was expressed in E. coli inclusion bodies, solubilized in urea, purified on a preparative […] reverse phase HPLC column, and then refolded in the presence of zinc acetate and purified for use. All MMPs were activated using 4-aminophenylmercuric acetate (“APMA”, Sigma Chemical, St. Louis, Mo.) or trypsin. MMP-9 also was activated using human recombinant MMP-3 (purified in Assignee's laboratory following standard cloning and purification techniques). […] Substrate (I) was purchased from Baychem (Redwood City, Calif.), and substrate II was prepared Assignee's laboratory. Substrate I was used in the IC50 determination assays, while substrate II was used in the Ki determination assays. In the absence of MMP inhibitory activity, either substrate is cleaved at the Gly-Leu peptide bond. […] The stock solutions of the assayed hydroxamic acids (or salts thereof) were prepared in 1% dimethyl sulfoxide (DMSO). […] The experiment controls contained the same amount of Buffer A/DMSO as the assayed sample, but contained no hydroxamic acid (or salt thereof). The assays from which the IC50 determinations were made were performed as follows. […] Louis, Mo.). The assayed hydroxamic acid samples were incubated in MicrofluorTM White Plates (Dynatech, Chantilly, Va.) and analyzed on a Perkin Elmer […] plate reader (Norwalk, Conn.). The excitation wavelength was 328 nm, and the emission wavelength-415 nm. […] As stated in the previous paragraph, samples containing varying concentrations of the same assayed hydroxamic acid were prepared. Inhibition was measured as a reduction in fluorescent intensity as a function of MMP inhibitor concentration. […] All values in Table 2 are given in nM units. The IC50 measurements are in parenthesis.

Molecules are shown by their SMILES.

In the case of `CCCCCCc1ccc(N2CCN(S(=O)(=O)C3(C(=O)NO)CCN(CCOC)CC3)CC2)cc1` [Example 199], the values for the IC50 at MMP-1 and on MMP-14 were above 10 µM and 6.71 µM, respectively.
In the case of `CCCc1ccc(N2CCN(S(=O)(=O)C3(C(=O)NO)CCN(CCOC)CC3)CC2)cc1` [Example 200], the IC50 is above 10 µM at MMP-1 and 1.49 µM on MMP-14.
As for `COCCN1CCC(C(=O)NO)(S(=O)(=O)N2CCN(c3ccc(Br)cc3)CC2)CC1` [Example 201], the IC50 at MMP-1 amounted to 6.85 µM; on MMP-14, 0.301 µM.
For the compound `COCCN1CCC(C(=O)NO)(S(=O)(=O)N2CCN(c3ccc(OC(F)(F)F)cc3)CC2)CC1` [Example 202], the figures for the IC50 at MMP-1 and on MMP-14 were above 10 µM and 1.17 µM, respectively.
Consider `O=C(NO)C1(S(=O)(=O)N2CCN(c3ccc(OC(F)(F)F)cc3)CC2)CCN(C2CC2)CC1` [Example 203], for which the values for the IC50 at MMP-1 and on MMP-14 were above 10 µM and 0.648 µM, respectively.
